Experimental data taken from patent US20100305068A1, “COMPOUNDS AND METHODS FOR MODULATING PROTEIN TRAFFICKING” (priority 2006, published 2010).

Test system: pdr5 ypt1^ts cells
Assay: microbe, parasite or virus in culture
Assay type: cell-based, yeast
Details: Saccharomyces cerevisiae; Table 2; lowest concentration tested giving growth above the 0 μM background; 37° C.; read-out: ypt1-ts MRC (minimal rescue concentration)
Outline: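 Whole-cell yeast growth-rescue screen: pdr5 ypt1^ts cells (efflux pump inactivated), growth-arrested at 37° C., cultured with compounds at 37° C. Restoration of growth read by optical density.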

In the case of `COC(=O)C[C@H]1C(C)(C)[C@@H](O)[C@@H]2CC3=C4C=C(OC)O[C@@H](c5ccoc5)[C@]4(C)CCC3[C@]1(C)C2=O` (stereo partly drawn) [3-DEOXO-3beta-HYDRO[…] 16-ENOL ETHER], the minimal effective concentration is reported as 3.13 µM.

Same assay, conditions: Table 2; 0.39 μM compound; 37° C.; background (0 μM) 0.058

Point of comparison: `COC(=O)C[C@H]1C(C)(C)[C@@H](O)[C@@H]2CC3=C4C=C(OC)O[C@@H](c5ccoc5)[C@]4(C)CCC3[C@]1(C)C2=O` (stereo partly drawn) [3-DEOXO-3beta-HYDRO[…] 16-ENOL ETHER], “optical density, ypt1-ts, 0.39” value 0.102. Against it:
- AKLAVINE HYDROCHLORIDE — lower, 0.095
- COC(=O)[C@]1(C)CC[C@]2(C)CC[C@]3(C)C4=CC=C5C(=CC(=O)C(O)=C5C)[C@]4(C)CC[C@@]3(C)[C@@H]2C1 [PRISTIMERIN] — higher, 0.534
- DACTINOMYCIN [reference compound] — lower, 0.093

Same assay, conditions: Table 2; 0.78 μM compound; 37° C.; background (0 μM) 0.058

Point of comparison: DACTINOMYCIN [reference compound], “optical density, ypt1-ts, 0.78” value 0.071. Against it:
- AKLAVINE HYDROCHLORIDE — higher, 0.136
- COC(=O)[C@]1(C)CC[C@]2(C)CC[C@]3(C)C4=CC=C5C(=CC(=O)C(O)=C5C)[C@]4(C)CC[C@@]3(C)[C@@H]2C1 [PRISTIMERIN] — higher, 0.332
- COC(=O)C[C@H]1C(C)(C)[C@@H](O)[C@@H]2CC3=C4C=C(OC)O[C@@H](c5ccoc5)[C@]4(C)CCC3[C@]1(C)C2=O (stereo partly drawn) [3-DEOXO-3beta-HYDRO[…] 16-ENOL ETHER] — higher, 0.077

Same assay, conditions: Table 2; 1.56 μM compound; 37° C.; background (0 μM) 0.058

Point of comparison: `COC(=O)C[C@H]1C(C)(C)[C@@H](O)[C@@H]2CC3=C4C=C(OC)O[C@@H](c5ccoc5)[C@]4(C)CCC3[C@]1(C)C2=O` (stereo partly drawn) [3-DEOXO-3beta-HYDRO[…] 16-ENOL ETHER], “optical density, ypt1-ts, 1.56” value 0.091. Against it:
- AKLAVINE HYDROCHLORIDE — lower, 0.078
- COC(=O)[C@]1(C)CC[C@]2(C)CC[C@]3(C)C4=CC=C5C(=CC(=O)C(O)=C5C)[C@]4(C)CC[C@@]3(C)[C@@H]2C1 [PRISTIMERIN] — higher, 0.669
- DACTINOMYCIN [reference compound] — lower, 0.082

Same assay, conditions: Table 2; 3.13 μM compound; 37° C.; background (0 μM) 0.058

Point of comparison: DACTINOMYCIN [reference compound], “optical density, ypt1-ts, 3.13” value 0.104. Against it:
- AKLAVINE HYDROCHLORIDE — lower, 0.088
- COC(=O)[C@]1(C)CC[C@]2(C)CC[C@]3(C)C4=CC=C5C(=CC(=O)C(O)=C5C)[C@]4(C)CC[C@@]3(C)[C@@H]2C1 [PRISTIMERIN] — higher, 0.703
- COC(=O)C[C@H]1C(C)(C)[C@@H](O)[C@@H]2CC3=C4C=C(OC)O[C@@H](c5ccoc5)[C@]4(C)CCC3[C@]1(C)C2=O (stereo partly drawn) [3-DEOXO-3beta-HYDRO[…] 16-ENOL ETHER] — higher, 0.141

Same assay, conditions: Table 2; 6.25 μM compound; 37° C.; background (0 μM) 0.058

Point of comparison: DACTINOMYCIN [reference compound], “optical density, ypt1-ts, 6.25” value 0.351. Against it:
- AKLAVINE HYDROCHLORIDE — lower, 0.101
- COC(=O)[C@]1(C)CC[C@]2(C)CC[C@]3(C)C4=CC=C5C(=CC(=O)C(O)=C5C)[C@]4(C)CC[C@@]3(C)[C@@H]2C1 [PRISTIMERIN] — higher, 0.68
- COC(=O)C[C@H]1C(C)(C)[C@@H](O)[C@@H]2CC3=C4C=C(OC)O[C@@H](c5ccoc5)[C@]4(C)CCC3[C@]1(C)C2=O (stereo partly drawn) [3-DEOXO-3beta-HYDRO[…] 16-ENOL ETHER] — lower, 0.219

Same assay, conditions: Table 2; 12.5 μM compound; 37° C.; background (0 μM) 0.058

Point of comparison: AKLAVINE HYDROCHLORIDE, “optical density, ypt1-ts, 12.5” value 0.145. Against it:
- COC(=O)[C@]1(C)CC[C@]2(C)CC[C@]3(C)C4=CC=C5C(=CC(=O)C(O)=C5C)[C@]4(C)CC[C@@]3(C)[C@@H]2C1 [PRISTIMERIN] — higher, 0.676
- DACTINOMYCIN [reference compound] — higher, 0.663
- COC(=O)C[C@H]1C(C)(C)[C@@H](O)[C@@H]2CC3=C4C=C(OC)O[C@@H](c5ccoc5)[C@]4(C)CCC3[C@]1(C)C2=O (stereo partly drawn) [3-DEOXO-3beta-HYDRO[…] 16-ENOL ETHER] — higher, 0.583

Same assay, conditions: Table 2; 25 μM compound; 37° C.; background (0 μM) 0.058

Point of comparison: DACTINOMYCIN [reference compound], “optical density, ypt1-ts, 25” value 0.669. Against it:
- AKLAVINE HYDROCHLORIDE — lower, 0.246
- COC(=O)[C@]1(C)CC[C@]2(C)CC[C@]3(C)C4=CC=C5C(=CC(=O)C(O)=C5C)[C@]4(C)CC[C@@]3(C)[C@@H]2C1 [PRISTIMERIN] — higher, 0.677
- COC(=O)C[C@H]1C(C)(C)[C@@H](O)[C@@H]2CC3=C4C=C(OC)O[C@@H](c5ccoc5)[C@]4(C)CCC3[C@]1(C)C2=O (stereo partly drawn) [3-DEOXO-3beta-HYDRO[…] 16-ENOL ETHER] — lower, 0.625

Same assay, conditions: Table 2; lowest concentration tested giving growth above the 0 μM background; 37° C.; read-out: ypt1-ts MRC (minimal rescue concentration)

Point of comparison: AKLAVINE HYDROCHLORIDE, minimal effective concentration 12.5 µM. Against it:
- DACTINOMYCIN [reference compound] — 2-fold lower, 6.25 µM

Same assay, conditions: Table 3; 3.13 uM compound; 37° C.; background (0 uM) 0.077

Point of comparison: `COC(=O)C[C@H]1C(C)(C)C(=O)[C@@H]2CC3C4=CC(=O)O[C@@H](c5ccoc5)[C@]4(C)CCC3[C@]1(C)C2=O` (stereo partly shown) [CARAPIN], “optical density, 3.13 uM” value 0.22. Against it:
- AVOCATIN A — higher, 0.351
- CCOC(=O)C1(O)Oc2cc(OC)cc(OC)c2C(=O)C1c1ccccc1 (stereo not shown) [2-ETHOXY- CARBONYL-2- HYDROXY-5,7- DIMETHOXY- ISOFLAVANONE] — lower, 0.091
- C=CCCCCCCCCCCC/C=C/C(O)COC(C)=O (stereo not shown) [DEHYDRO- AVOCATIN - 1-ACETATE] — lower, 0.116
- CHLORO- PHYLLIDE Cu COMPLEX Na SALT — lower, 0.064
- CC(C)C1=CC2=CC[C@H]3[C@](C)(CO)CCC[C@]3(C)C2CC1 (stereo partly shown) [ABIETANOL] — lower, 0.102
- CC(=O)O[C@@H]1CC2C(C)(C)[C@H](O)CC[C@]2(C)C2CC[C@@]3(C)[C@H](c4ccoc4)OC(=O)C4OC43[C@@]21C (stereo partly drawn) [3alpha- HYDROXY- DEOXO- DIHYDRO- GEDUNIN] — lower, 0.137
- C#CCCCCCCCCCCCC(O)CC(O)COC(C)=O (stereo not shown) [AVOCADYNE ACETATE] — higher, 0.389
- COc1ccc2c(=O)cc(-c3ccccc3OC)oc2c1 [7,2′- DIMETHOXY- FLAVONE] — lower, 0.098
- COc1ccc(-c2coc3c(OC)c(O)ccc3c2=O)cc1 [7-HYDROXY- 8,4′-DIMETH- OXYISO- FLAVONE] — lower, 0.121

Same assay, conditions: Table 3; 12.5 uM compound; 37° C.; background (0 uM) 0.077

Point of comparison: `COc1ccc2c(=O)cc(-c3ccccc3OC)oc2c1` [7,2′- DIMETHOXY- FLAVONE], “optical density, 12.5 uM” value 0.156. Against it:
- AVOCATIN A — lower, 0.06
- CCOC(=O)C1(O)Oc2cc(OC)cc(OC)c2C(=O)C1c1ccccc1 (stereo not shown) [2-ETHOXY- CARBONYL-2- HYDROXY-5,7- DIMETHOXY- ISOFLAVANONE] — lower, 0.134
- C=CCCCCCCCCCCC/C=C/C(O)COC(C)=O (stereo not shown) [DEHYDRO- AVOCATIN - 1-ACETATE] — higher, 0.329
- CHLORO- PHYLLIDE Cu COMPLEX Na SALT — lower, 0.054
- CC(C)C1=CC2=CC[C@H]3[C@](C)(CO)CCC[C@]3(C)C2CC1 (stereo partly shown) [ABIETANOL] — higher, 0.274
- COC(=O)C[C@H]1C(C)(C)C(=O)[C@@H]2CC3C4=CC(=O)O[C@@H](c5ccoc5)[C@]4(C)CCC3[C@]1(C)C2=O (stereo partly shown) [CARAPIN] — higher, 0.357
- CC(=O)O[C@@H]1CC2C(C)(C)[C@H](O)CC[C@]2(C)C2CC[C@@]3(C)[C@H](c4ccoc4)OC(=O)C4OC43[C@@]21C (stereo partly drawn) [3alpha- HYDROXY- DEOXO- DIHYDRO- GEDUNIN] — higher, 0.25
- C#CCCCCCCCCCCCC(O)CC(O)COC(C)=O (stereo not shown) [AVOCADYNE ACETATE] — higher, 0.406
- COc1ccc(-c2coc3c(OC)c(O)ccc3c2=O)cc1 [7-HYDROXY- 8,4′-DIMETH- OXYISO- FLAVONE] — lower, 0.151

Same assay, conditions: Table 3; 50 uM compound; 37° C.; background (0 uM) 0.077

Point of comparison: `COc1ccc(-c2coc3c(OC)c(O)ccc3c2=O)cc1` [7-HYDROXY- 8,4′-DIMETH- OXYISO- FLAVONE], “optical density, 50 uM” value 0.398. Against it:
- AVOCATIN A — lower, 0.036
- CCOC(=O)C1(O)Oc2cc(OC)cc(OC)c2C(=O)C1c1ccccc1 (stereo not shown) [2-ETHOXY- CARBONYL-2- HYDROXY-5,7- DIMETHOXY- ISOFLAVANONE] — higher, 0.468
- C=CCCCCCCCCCCC/C=C/C(O)COC(C)=O (stereo not shown) [DEHYDRO- AVOCATIN - 1-ACETATE] — lower, 0.365
- CHLORO- PHYLLIDE Cu COMPLEX Na SALT — lower, 0.305
- CC(C)C1=CC2=CC[C@H]3[C@](C)(CO)CCC[C@]3(C)C2CC1 (stereo partly shown) [ABIETANOL] — lower, 0.29
- COC(=O)C[C@H]1C(C)(C)C(=O)[C@@H]2CC3C4=CC(=O)O[C@@H](c5ccoc5)[C@]4(C)CCC3[C@]1(C)C2=O (stereo partly shown) [CARAPIN] — higher, 0.5
- CC(=O)O[C@@H]1CC2C(C)(C)[C@H](O)CC[C@]2(C)C2CC[C@@]3(C)[C@H](c4ccoc4)OC(=O)C4OC43[C@@]21C (stereo partly drawn) [3alpha- HYDROXY- DEOXO- DIHYDRO- GEDUNIN] — lower, 0.146
- C#CCCCCCCCCCCCC(O)CC(O)COC(C)=O (stereo not shown) [AVOCADYNE ACETATE] — lower, 0.039
- COc1ccc2c(=O)cc(-c3ccccc3OC)oc2c1 [7,2′- DIMETHOXY- FLAVONE] — lower, 0.3
